Results from US20090105119A1, “ASPARAGINE-10-SUBSTITUTED NONADEPSIPEPTIDES” (priority 2006, published 2009).
≈ marks a conversion by molar mass, not a printed value. Where two headings read alike, the source gives them in different places. *1 amine or outer side, *2 acyl side, *3 side chain or, on linkers, in order; H or OH if unused. Where a SMILES comes first, the peptide text is derived from it. Bridges are numbered along the chain shown (N, C = ends). [ ]: non-standard residue; d: D form. Phe(3R-OH) = O=C([C@@H](N[*:1])[C@H](O[*:3])c1ccccc1)[*:2]; X2 = O=C(NCCO)[C@@H](O)[C@H](N[*:1])C(=O)[*:2]; X1 = CNC(=O)[C@@H](O)[C@H](N[*:1])C(=O)[*:2]; Asn(3S-OH) = NC(=O)[C@@H](O)[C@H](N)C(=O)O; Leu(3R-OH) = CC(C)[C@@H](O)[C@H](N)C(=O)O; aThr = C[C@H](O)[C@H](N)C(=O)O

Columns and labels:
[1] = tested on: Staphylococcus aureus 133; assay type: cell-based; settings: Isosensitest medium, 10^5 microbes per ml, 37° C., 18-24 hours
Protocol: (§1) Determination of the Minimum Inhibitory Concentration (MIC):
(§2) The MIC is determined in the liquid dilution test in accordance with the NCCLS guidelines. Overnight cultures of Staphylococcus aureus 133, Enterococcus faecalis 27159, E. faecium 4147 and Streptococcus pneumoniae G9a are incubated with the described test substances in a 1:2 dilution series. The MIC determination is carried out with a cell count of 10^5 microbes per ml in Isosensitest medium (Difco, Irvine/USA), with the exception of S. pneumoniae which is tested in BHI broth (Difco, Irvine/USA) with 10% bovine serum with a cell count of 10^6 microbes per ml. The cultures are incubated at 37° C. for 18-24 hours, S. pneumoniae in the presence of 10% CO2.
(§3) The MIC is defined as the lowest concentration of each substance at which no visible bacterial growth occurs any longer. The MIC values are reported in μg/ml.

[2] = tested on: Streptococcus pneumoniae G9a; assay type: cell-based; settings: BHI broth with 10% bovine serum, 10^6 microbes per ml, 10% CO2, 37° C., 18-24 hours
Protocol: as §1, §2, §3

E. faecalis ICB 27159 = assay type: cell-based, Enterococcus faecalis; settings: Isosensitest medium, 10^5 microbes per ml, 37° C., 18-24 hours
Protocol: as §1, §2, §3

[3] = Determination of the free fraction (fu) in plasma; assay type: in vitro ADME, rat; settings: pH 7.4
Protocol: (§4) Principle of the Determination of the Free Fraction Via Transil:
(§5) The method described here for determining the free fraction (fu) of a test substance is divided into 2 parts:
(§6) a) Determination of the Transil®/buffer distribution ratio (MAbuffer) by incubating the test substance in a Transil®-buffer (pH 7.4) dispersion and subsequently determining the concentration in the dispersion and in the buffer supernatant.
(§7) b) Determination of the Transil®/plasma distribution ratio (MAplasma) by incubating the test substance in a Transil®-plasma dispersion and subsequently determining the concentration in the dispersion and in the plasma.
(§8) The quotient of the two distribution ratios yields fu.
(§9) In the case of highly protein-bound substances, the plasma is usually diluted with isotonic phosphate buffer (pH 7.4) and then suspended with Transil®. The determination of fu′ (free fraction in diluted plasma) in this diluted protein solution takes place in analogy to the determination of fu. The free fraction in undiluted plasma is calculated from fu′ and the dilution factor.
(§10) Concerning this method, compare also: Schuhmacher, Joachim; Kohlsdorfer, Christian; Buehner, Klaus; Brandenburger, Tim; Kruk, Renate, “High-throughput determination of the free fraction of drugs strongly bound to plasma proteins.” Journal of Pharmaceutical Sciences 2004, 93, 816-830.
(§11) Determination of the Membrane Affinity of a Test Substance after Distribution Between Transil® and Buffer (MAbuffer):
(§12) All incubations are carried out in suitable glass vessels, e.g. glass vials, ground-socket test tubes. In general the total volume is 0.5-5 ml, and the Transil® volume 10-100 μl. In cases where the membrane affinities are expected to be high, the Transil® dispersion can be diluted up to 20-fold with phosphate buffer of pH 7.4, e.g. Dulbecco's PBS. Phosphate buffer of pH 7.4 is provided in the incubation vessels, and the Transil® is pipetted in, after thorough mixing. The test substance is pipetted in at a concentration of, for example, 200 ng/mL, n=6. The proportion of organic solvent should be <2%. The mixtures are incubated at room temperature for 30 min, e.g. on a mini-shaker at an angle of about 45°, at about 400 rpm. In order to determine the 100% value at least one aliquot of, for example, 100 μl, is removed and the remaining mixture is centrifuged at about 1800 g for about 10 min. At least 2 aliquots (e.g. 100 μl) of the supernatant are removed from each sample for the determination of the concentration.
(§13) Determination of MAplasma in Undiluted or Diluted Plasma:
(§14) The total incubation volume and the added volume of Transil® depend on the expected free fraction. In general the total volume is 0.5-1 ml, and the Transil® volume is 10-100 μl. In cases where the free fractions are very low, the plasma of the species to be investigated is diluted, with isotonic buffer solution, pH 7.4, e.g. 10-400-fold, and the Transil® is then added. The subsequent procedure takes place as described above for the determination of the MAbuffer values. […]
(§15) The plasma of the species to be investigated is filtered through a semipermeable membrane. The substance concentration in the filtrate is measured and the free fraction fu is calculated therefrom. […] The substance concentration in the ultrafiltrate (Cu; unbound substance concentration) and in the plasma before centrifugation (C; total substance concentration) is measured. The free fraction is calculated by the formula: fu (%)=Cu/C*100.

[4] = Determination of the free fraction (fu) in plasma; assay type: in vitro ADME; settings: human
Protocol: as §4, §5, §6, §7, §8, §9, §10, §11, §12, §13, §14, §15

[5] = rat plasma, read-out: Free fraction (rat plasma)
[6] = read-out: Free fraction (human plasma)

| SMILES | MIC S. aureus 133 [1] [µg/mL] | MIC S. pneumoniae G9a [2] [µg/mL] | MIC E. faecalis ICB 27159 (E. faecalis ICB 27159) [µg/mL] | fraction unbound at 30 min, 200 ng/mL [3, 5] | fraction unbound at 30 min [4, 6] | fraction unbound at 30 min, 200 ng/mL ([3]; rat, plasma) | fraction unbound at 30 min [4] |
| --- | --- | --- | --- | --- | --- | --- | --- |
| CC[C@H](C)[C@@H]1NC(=O)[C@@H](CCCNC(=N)N)NC(=O)[C@H](CC(C)C)NC(=O)[C@H]([C@H](O)C(C)C)NC(=O)[C@@H](NC(=O)[C@H](CC(C)C)NC(=O)[C@H](N)CC(C)C)[C@@H](c2ccccc2)OC(=O)[C@H](CO)NC(=O)[C@H]([C@H](O)C(=O)NCCO)NC(=O)CNC(=O)[C@H]([C@H](C)O)NC1=O [Example 2, N^4.10-(2-Hydroxyethyl)-D-leucyl-L-leucyl-[(3R)-3-hydroxy-L-phenylalanyl]-[(3R)-3-hydroxy-L-leucyl]-L-leucyl-D-arginyl-L-isoleucyl-L-allothreonylglycyl-[(3S)-3-hydroxy-L-asparaginyl]-L-serine C^1.11—O^3.3-lactone Bistrifluoroacetate] (H-[dL]L[Phe(3R-OH)][Leu(3R-OH)]L[dR]I[aThr]G[X2]S; ester 3-C) | 1 (≈ 0.757 µM) | 2 (≈ 1.51 µM) | 16 (≈ 12.1 µM) | 0.137 | 0.099 |  |  |
| CC[C@H](C)[C@@H]1NC(=O)[C@@H](CCCNC(=N)N)NC(=O)[C@H](CC(C)C)NC(=O)[C@H]([C@H](O)C(C)C)NC(=O)[C@@H](NC(=O)[C@H](CC(C)C)NC(=O)[C@H](N)CC(C)C)[C@@H](c2ccccc2)OC(=O)[C@H](CO)NC(=O)[C@H]([C@H](O)C(=O)NC)NC(=O)CNC(=O)[C@H]([C@H](C)O)NC1=O [Example 3, N^4.10-Methyl-D-leucyl-L-leucyl-[(3R)-3-hydroxy-L-phenylalanyl]-[(3R)-3-hydroxy-L-leucyl]-L-leucyl-D-arginyl-L-isoleucyl-L-allothreonylglycyl-[(3S)-3-hydroxy-L-asparaginyl]-L-serine C^1.11—O^3.3-lactone Bistrifluoroacetate] (H-[dL]L[Phe(3R-OH)][Leu(3R-OH)]L[dR]I[aThr]G[X1]S; ester 3-C) | 0.25 (≈ 0.194 µM) | 0.5 (≈ 0.387 µM) | 2 (≈ 1.55 µM) | 0.129 | 0.051 |  |  |
| CC[C@H](C)[C@@H]1NC(=O)[C@@H](CCCNC(=N)N)NC(=O)[C@H](CC(C)C)NC(=O)[C@H]([C@H](O)C(C)C)NC(=O)[C@@H](NC(=O)[C@H](CC(C)C)NC(=O)[C@H](N)CC(C)C)[C@@H](c2ccccc2)OC(=O)[C@H](CO)NC(=O)[C@H]([C@H](O)C(N)=O)NC(=O)CNC(=O)[C@H]([C@H](C)O)NC1=O [1a (Lysobactin), D-Leucyl-N^1-{(3S,6S,12S,15S,18R,21S,24S,27S,28R)-6-[(1S)-2-amino-1-hydroxy-2-oxo-ethyl]-18-(3-{[amino(imino)methyl]amino}propyl)-12-[(1S)-1-hydroxyethyl]-3-(hydroxy-methyl)-24-[(1R)-1-hydroxy-2-methylpropyl]-21-isobutyl-15-[(1S)-1-methylpropyl]-2,5,8,11,14,17,20,23,26-nonaoxo-28-phenyl-1-oxa-4,7,10,13,16,19,22,25-octaazacyclo-octacosan-27-yl}-L-leucinamide Bistrifluoroacetate, reference compound] (H-[dL]L[Phe(3R-OH)][Leu(3R-OH)]L[dR]I[aThr]G[Asn(3S-OH)]S; ester 3-C) |  |  |  |  |  | 0.0076 | 0.0081 |
